According to patent US4758597A, “Carenadiol and derivatives” (University Patents, Inc., priority 1987, dated 1988):

Legend:
[1] = Rat rotorod (ROT) test, differential neurotoxicity; assay type: in vivo; conditions: iv, rats, tested 15 minutes after injection, 95% confidence limits printed in parentheses on the next line, read-out: ROT TD50 (median neurotoxic dose)
Procedure: (§1) With regard to the potential use of this family of compounds in the treatment of epilepsy, (+)-Carenadiol was evaluated in the audiogenic seizure (AGS-susceptible) rat model of eilepsy to assess its anticonvulsant activity, and the rat rotorod (ROT) paadigm was used to assess differential neurotoxicity (i.e., reflecting mainly sedation and/or incoordination), of this family of compounds.
(§2) For AGS tests, male and female, 150-225 gm, genetically epilepsy prone rats were used. For ROT tests, male and female, 150-225 gm. rats were used. CBD analogs (suspended in a vehicle of 10% polysorbate 80 and 90% distilled water) were injected intravenously and rats were tested 15 minutes later (a peak-effect time for both tests). In the AGS test, responses to sound were recorded as the presence or absence of seizure (i.e., generalized clonus or clonus and generalized flexion). In the ROT test, effects were measured as the ability or inability (i.e., neurotoxicity) of trained rats to remain on a revolving drum (rotorod) for 60 seconds.
(§3) Separate groups of 10-15 rats were used for each doses of drug tested and, typically, 3-6 doses of each analog were used for each AGS and ROT test. For appropriate dose-response data, median effective anticonvulsant (ED50) and neurotoxic (TD50) doses and regression line parameters were calculated by computer-assisted probit analysis. Subsequent calculations of 95% confidence limits (CL) and comparisons between slopes and median doses (i.e., ED50 and TD50 potency comparisons) were carried out using the method of Litchfield and Wilcoxon [J. Pharmacol Exp Ther 96:99-133(1949)].Protective indexes (PI =ROT-TD50/AGS-ED50) also were calculated.

[2] = Audiogenic seizure (AGS) test, anticonvulsant activity; assay type: in vivo, rat; conditions: rat, in vivo; ratio of ROT TD50 to AGS ED50, iv, rats; read-out: PI (protective index = ROT-TD50/AGS-ED50)
Procedure: as §1, §2, §3

[3] = tested on: genetically epilepsy prone rats; assay: as above; assay type: in vivo, rat; conditions: for ED50: Rattus norvegicus, 0.25 h, iv, rats, tested 15 minutes after injection, 95% confidence limits printed in parentheses on the next line, read-out: AGS ED50 (median effective anticonvulsant dose)
Procedure: as §1, §2, §3

[4] = in man; cited from earlier work
laboratory animals = conditions: cited from earlier work

SMILES | TD50 at 0.25 h [1] [mg/kg] | selectivity ratio at 0.25 h [2] | ED50 [3] [mg/kg] | activity among the compounds synthesized and tested ([3]; comparison in words) | antidystonic activity [4] | antiepileptic efficacy [4] | cannabimimetic activity [4] | side effects [4] | activity in models that predict cannabimimetic activity (laboratory animals)
CCCCCc1cc(O)c(C2C=C(C)CC3C2C3(C)C)c(O)c1 (single isomer, unassigned; (+)) [(+)-5a] | 99.8 | 5.5 | 18.1 | the most active | – | – | – | – | –
CCCCCCC(C)(C)c1cc(O)c(C2C=C(C)CC3C2C3(C)C)c(O)c1 (single isomer, unassigned; (+)) [(+)-5b] | 3.7 | 1.1 | 3.4 | – | – | – | – | – | –
C=C(C)[C@@H]1CCC(C)=C[C@H]1c1c(O)cc(CCCCC)cc1O [(-)-CBD, (-)-Cannabidiol] | – | – | – | – | possibly antidystonic activity | antiepileptic efficacy | no cannabimimetic activity | no recognized and undesired side effects | inactive
NC(=O)N1c2ccccc2C=Cc2ccccc21 [Carbamazepine] | 33.9 | 2.7 | 12.8 | – | – | – | – | – | –
CCC1(c2ccccc2)C(=O)NC(=O)NC1=O [Phenobarbital] | 28.9 | 2.7 | 10.8 | – | – | – | – | – | –
O=C1NC(=O)C(c2ccccc2)(c2ccccc2)N1 [Phenytoin] | 23.9 | 1.6 | 14.7 | – | – | – | – | – | –
